Source: PubChem BioAssay AID1552 (Sanford-Burnham Center for Chemical Genomics, 2009)
The source made the active and inactive calls. How the calls were made is not given here.

target: Ubiquitin-conjugating enzyme E2 N (Homo sapiens) (UniProt P61088); test: NMR detection of UBE2N ligand binding – biophysical, purified protein (AID 1552); conditions: NMR binding to purified UBE2N
Sequence (P61088 whole entry, looked up): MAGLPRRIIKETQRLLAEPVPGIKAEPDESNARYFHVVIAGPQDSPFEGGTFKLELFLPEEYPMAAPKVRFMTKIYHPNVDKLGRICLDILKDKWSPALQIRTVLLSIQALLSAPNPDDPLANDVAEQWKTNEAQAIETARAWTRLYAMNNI

Row | SMILES | Kd
1 | O=C(Oc1ccc2c(c1)OCC2=O)c1ccccc1 | > 4 mM (inactive)
2 | Cc1noc(C)c1C(=O)N1CCN(c2ncccn2)CC1 | > 4 mM (inactive)
3 | CN1CCCC1C(=O)O (centres undefined) | > 4 mM (inactive)
4 | CN(C)C(=O)Oc1ccc(-c2nnco2)cc1 | > 4 mM (inactive)
5 | CN1CCC(NC(=O)C2CCCO2)CC1 (centres undefined) | > 4 mM (inactive)
6 | CC(=O)c1cccc(NC(=O)NN2CCOCC2)c1 | > 4 mM (inactive)
7 | COC(=O)Nc1nc2c(C)cccc2s1 | > 4 mM (inactive)
8 | COc1cc2c(cc1OC)Cc1cc(OC)c(OC)cc1Cc1cc(OC)c(OC)cc1C2 | > 4 mM (inactive)
9 | O=C1Nc2ccccc2C1C1(O)C(=O)Nc2ccc(F)cc21 (centres undefined) | > 4 mM (inactive)
10 | Cc1cc(C(=O)Nc2cccnc2)no1 | > 4 mM (inactive)
11 | CC(C)=CCc1c2c(c3occ(-c4ccc(O)cc4)c(=O)c3c1O)C=CC(C)(C)O2 | > 4 mM (inactive)
12 | CCOC(=O)c1cc(C)n(C)n1 | > 4 mM (inactive)
13 | O=C1C=CC(=O)c2c(O)cccc21 | > 4 mM (inactive)
14 | Cc1ccc(OCC(=O)n2cnnc2N)c(C)c1 | > 4 mM (inactive)
15 | NC(=O)c1c[nH]c2ccccc12 | > 4 mM (inactive)
16 | CN1CCN(C(=O)c2ccco2)CC1 | > 4 mM (inactive)
17 | O=C(O)Cn1nnnc1-c1ccc(F)cc1 | > 4 mM (inactive)
18 | Cn1c(SCCC(=O)O)nnc1-c1cccnc1 | > 4 mM (inactive)
19 | O=C(c1cccc(C(F)(F)F)c1)N1CCCC1 | > 4 mM (inactive)
20 | CC1CCN(C(=O)c2ccc(NS(C)(=O)=O)cc2)CC1 | > 4 mM (inactive)

Row | SMILES | Kd
21 | Cc1ccc(CN2CCNC(=O)C2CC(=O)O)o1 (centres undefined) | > 4 mM (inactive)
22 | Cc1nc2nc(-c3ccco3)nn2c(C)c1Cl | > 4 mM (inactive)
23 | CC(=O)Nc1cc(C(N)=O)cc(C(N)=O)c1 | > 4 mM (inactive)
24 | COc1ccc2ccc(=O)oc2c1 | > 4 mM (inactive)
25 | CC(=O)Nc1ccn(Cc2c(F)cccc2Cl)n1 | > 4 mM (inactive)
26 | C=C(C)CSc1nc2nc(C)cc(C)n2n1 | > 4 mM (inactive)
27 | O=C(O)c1ccc(-c2cccs2)s1 | > 4 mM (inactive)
28 | O=c1[nH]cc(NCc2ccco2)c(=O)[nH]1 | > 4 mM (inactive)
29 | NNc1ncnc2sccc12 | > 4 mM (inactive)
30 | O=C(O)CCCNC(=O)c1ccccc1C(=O)O | > 4 mM (inactive)
31 | O=C(c1cnsn1)N1CCN(c2ccccc2)CC1 | > 4 mM (inactive)
32 | O=C(O)CCN1CCOCC1 | > 4 mM (inactive)
33 | O=C(Cc1cccs1)Nc1ccon1 | > 4 mM (inactive)
34 | Cc1ccc(C(=O)n2cnnc2N)cc1C | > 4 mM (inactive)
35 | Cc1ccc(-n2nnnc2SCC(N)=O)c(C)c1 | > 4 mM (inactive)
36 | Cc1cc(C(=O)NCc2ccccc2Br)no1 | > 4 mM (inactive)
37 | S=C(CN1CCCC1=S)N1CCOCC1 | > 4 mM (inactive)
38 | O=C1N=c2ccccc2=C1c1sc(=S)[nH]c1O | > 4 mM (inactive)
39 | CCN(CC)S(=O)(=O)c1ccc(F)cc1 | > 4 mM (inactive)
40 | O=C(NC(=S)NN1CCOCC1)c1cccs1 | > 4 mM (inactive)

Row | SMILES | Kd
41 | O=C(Nn1cnnc1)c1csc2ccccc12 | > 4 mM (inactive)
42 | O=C1CCCC(=O)N1Cc1ccco1 | > 4 mM (inactive)
43 | COc1ccc2c(c1)OCC(Cc1ccc(OC)c(O)c1)C2=O (centres undefined) | > 4 mM (inactive)
44 | O=[N+]([O-])c1ccc2c(c1)N([O-])C1(CCCCC1)[N+]2=O | > 4 mM (inactive)
45 | CC(=O)Nc1cccs1 | > 4 mM (inactive)
46 | O=c1cc(-c2cc(O)c(O)c(O)c2)oc2cc(O)cc(O)c12 | > 4 mM (inactive)
47 | CC(=O)Nc1ccc(-c2nc(C)c(C(C)=O)n2O)cc1 | > 4 mM (inactive)
48 | S=c1nc(C2CC2)[nH]c2ccccc12 | > 4 mM (inactive)
49 | COc1ccc2c(c1)=C(c1sc(N)nc1O)C(=O)N=2 | > 4 mM (inactive)
50 | COc1ccc(-c2nc(N)n(C(C)=O)n2)cc1 | > 4 mM (inactive)
51 | COc1ccc(-c2cc3nc4n(c(=O)c3s2)CCC4)cc1 | > 4 mM (inactive)
52 | COc1c2ccoc2nc2c(OC)c(OCC(O)C(C)(C)O)ccc12 (centres undefined) | > 4 mM (inactive)
53 | O=c1c2ccccc2oc2ccccc12 | > 4 mM (inactive)
54 | Nc1nc(-c2ccc(F)c(F)c2)cs1 | > 4 mM (inactive)
55 | O=c1c2ccccc2oc2ccc(O)cc12 | > 4 mM (inactive)
56 | O=S1(=O)C=CC(N2CCCCC2)C1 (centres undefined) | > 4 mM (inactive)
57 | Cc1cc(C)n(-c2nc(N)cc(=O)[nH]2)n1 | > 4 mM (inactive)
58 | O=C(O)c1cccnc1Oc1ccccc1 | > 4 mM (inactive)
59 | Cn1nnc2cc(C(=O)N3CCSCC3)ccc21 | > 4 mM (inactive)
